Laboratory results: the supplement of paper PMC8671470

What follows are compounds tested on myeloid leukemia patient primary cells Pat.4 (assay: cell viability (% survival relative to DMSO control); higher = less cytotoxic). Conditions: 100 nM; 72 h.
Summary of the method: (§1)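 Thawed mononuclear cells from AML or CML patients were purified on Ficoll and cultured for 72 h in RPMI 1640 with 10% FBS, at 10,000 cells/well, on 384-well plates carrying 70 pre-printed compounds at 1–10,000 nM in five tenfold steps, in duplicate. Viability came from CellTiter-Glo, normalised against DMSO and against 10 μM proteasome inhibitor. Any area under the curve given was derived from log-logistic curve fits in the drc and PharmacoGx R packages, and these fits had four parameters.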

Structure (SMILES) | cell viability
C=C(C)[C@H]1Cc2c(ccc3c2O[C@@H]2COc4cc(OC)c(OC)cc4[C@@H]2C3=O)O1 [Rotenone] | 88.5%
Oc1ccc(Nc2nc(-c3ccc(Cl)cc3)cs2)cc1 [SKI II] | 54.5%
CCC(=O)N1CCN(c2ccc(-n3c(=O)ccc4cnc5ccc(-c6cnc7ccccc7c6)cc5c43)cc2C(F)(F)F)CC1 [Torin1] | 59.8%

Same assay, conditions: 1000 nM; 72 h

Structure (SMILES) | cell viability
O=C(C1CC1)N1CC[C@@H](C=C2NNC(=O)N2c2ccc(-c3ccc4occc4c3)cc2)C1 | 92.1%
C[C@H](NC(=O)c1sccc1OCc1ccc(Cl)cc1)c1ccccc1 | 83.3%
O=C(O)C1=CC(=C(c2ccc(O)c(C(=O)O)c2)c2ccc(O)c(C(=O)O)c2)C=CC1=O [Aurintricarboxylic acid] | > 100%
COC(=O)[C@]12CCC(C)(C)C[C@H]1[C@H]1C(=O)C=C3[C@@]4(C)C=C(C#N)C(=O)C(C)(C)[C@@H]4CC[C@@]3(C)[C@]1(C)CC2 [Bardoxolone methyl] | 70%
Cc1c(-c2ccc(-c3ccccc3F)cc2)nc2ccc(F)cc2c1C(=O)O [Brequinar] | 87.5%
Nc1nc(Cl)nc2c1ncn2[C@H]1C[C@H](O)[C@@H](CO)O1 [Cladribine] | 4.74%
O=C1c2cc([N+](=O)[O-])ccc2-n2c1nc1ccccc1c2=O [GNF-Pf-3777] | 79.5%
C=C(C)[C@H]1Cc2c(ccc3c2O[C@@H]2COc4cc(OC)c(OC)cc4[C@@H]2C3=O)O1 [Rotenone] | 62.3%
Oc1ccc(Nc2nc(-c3ccc(Cl)cc3)cs2)cc1 [SKI II] | 89.1%
CCC(=O)N1CCN(c2ccc(-n3c(=O)ccc4cnc5ccc(-c6cnc7ccccc7c6)cc5c43)cc2C(F)(F)F)CC1 [Torin1] | 40.2%

Same assay, conditions: 10000 nM; 72 h

Structure (SMILES) | cell viability
O=C(C1CC1)N1CC[C@@H](C=C2NNC(=O)N2c2ccc(-c3ccc4occc4c3)cc2)C1 | 71.6%
C[C@H](NC(=O)c1sccc1OCc1ccc(Cl)cc1)c1ccccc1 | 39.9%
O=C(O)C1=CC(=C(c2ccc(O)c(C(=O)O)c2)c2ccc(O)c(C(=O)O)c2)C=CC1=O [Aurintricarboxylic acid] | 91%
COC(=O)[C@]12CCC(C)(C)C[C@H]1[C@H]1C(=O)C=C3[C@@]4(C)C=C(C#N)C(=O)C(C)(C)[C@@H]4CC[C@@]3(C)[C@]1(C)CC2 [Bardoxolone methyl] | 1.48%
Cc1c(-c2ccc(-c3ccccc3F)cc2)nc2ccc(F)cc2c1C(=O)O [Brequinar] | 86.4%
Nc1nc(Cl)nc2c1ncn2[C@H]1C[C@H](O)[C@@H](CO)O1 [Cladribine] | 6.11%
O=C1c2cc([N+](=O)[O-])ccc2-n2c1nc1ccccc1c2=O [GNF-Pf-3777] | 19%
C=C(C)[C@H]1Cc2c(ccc3c2O[C@@H]2COc4cc(OC)c(OC)cc4[C@@H]2C3=O)O1 [Rotenone] | 11.7%
Oc1ccc(Nc2nc(-c3ccc(Cl)cc3)cs2)cc1 [SKI II] | 25.3%
CCC(=O)N1CCN(c2ccc(-n3c(=O)ccc4cnc5ccc(-c6cnc7ccccc7c6)cc5c43)cc2C(F)(F)F)CC1 [Torin1] | 12.8%

These compounds were tested on myeloid leukemia patient primary cells Pat.5 in the same assay as above. Conditions: 1 nM; 72 h.
Summary of the method: as §1

Structure (SMILES) | cell viability
O=C(C1CC1)N1CC[C@@H](C=C2NNC(=O)N2c2ccc(-c3ccc4occc4c3)cc2)C1 | 73%
C[C@H](NC(=O)c1sccc1OCc1ccc(Cl)cc1)c1ccccc1 | 88.1%
O=C(O)C1=CC(=C(c2ccc(O)c(C(=O)O)c2)c2ccc(O)c(C(=O)O)c2)C=CC1=O [Aurintricarboxylic acid] | > 100%
COC(=O)[C@]12CCC(C)(C)C[C@H]1[C@H]1C(=O)C=C3[C@@]4(C)C=C(C#N)C(=O)C(C)(C)[C@@H]4CC[C@@]3(C)[C@]1(C)CC2 [Bardoxolone methyl] | 65.9%
Cc1c(-c2ccc(-c3ccccc3F)cc2)nc2ccc(F)cc2c1C(=O)O [Brequinar] | 66.1%
Nc1nc(Cl)nc2c1ncn2[C@H]1C[C@H](O)[C@@H](CO)O1 [Cladribine] | 50.7%
O=C1c2cc([N+](=O)[O-])ccc2-n2c1nc1ccccc1c2=O [GNF-Pf-3777] | > 100%
C=C(C)[C@H]1Cc2c(ccc3c2O[C@@H]2COc4cc(OC)c(OC)cc4[C@@H]2C3=O)O1 [Rotenone] | 5.46%
Oc1ccc(Nc2nc(-c3ccc(Cl)cc3)cs2)cc1 [SKI II] | 34.3%
CCC(=O)N1CCN(c2ccc(-n3c(=O)ccc4cnc5ccc(-c6cnc7ccccc7c6)cc5c43)cc2C(F)(F)F)CC1 [Torin1] | 54.5%

Same assay, conditions: 10 nM; 72 h

Structure (SMILES) | cell viability
O=C(C1CC1)N1CC[C@@H](C=C2NNC(=O)N2c2ccc(-c3ccc4occc4c3)cc2)C1 | > 100%
C[C@H](NC(=O)c1sccc1OCc1ccc(Cl)cc1)c1ccccc1 | 68.7%
O=C(O)C1=CC(=C(c2ccc(O)c(C(=O)O)c2)c2ccc(O)c(C(=O)O)c2)C=CC1=O [Aurintricarboxylic acid] | 88.3%
COC(=O)[C@]12CCC(C)(C)C[C@H]1[C@H]1C(=O)C=C3[C@@]4(C)C=C(C#N)C(=O)C(C)(C)[C@@H]4CC[C@@]3(C)[C@]1(C)CC2 [Bardoxolone methyl] | 47.9%
Cc1c(-c2ccc(-c3ccccc3F)cc2)nc2ccc(F)cc2c1C(=O)O [Brequinar] | 60.8%
Nc1nc(Cl)nc2c1ncn2[C@H]1C[C@H](O)[C@@H](CO)O1 [Cladribine] | 35.2%
O=C1c2cc([N+](=O)[O-])ccc2-n2c1nc1ccccc1c2=O [GNF-Pf-3777] | 63%
C=C(C)[C@H]1Cc2c(ccc3c2O[C@@H]2COc4cc(OC)c(OC)cc4[C@@H]2C3=O)O1 [Rotenone] | 0.265%
Oc1ccc(Nc2nc(-c3ccc(Cl)cc3)cs2)cc1 [SKI II] | 41.7%
CCC(=O)N1CCN(c2ccc(-n3c(=O)ccc4cnc5ccc(-c6cnc7ccccc7c6)cc5c43)cc2C(F)(F)F)CC1 [Torin1] | 13.5%

Same assay, conditions: 100 nM; 72 h

Structure (SMILES) | cell viability
O=C(C1CC1)N1CC[C@@H](C=C2NNC(=O)N2c2ccc(-c3ccc4occc4c3)cc2)C1 | 72.3%
C[C@H](NC(=O)c1sccc1OCc1ccc(Cl)cc1)c1ccccc1 | 71.7%
O=C(O)C1=CC(=C(c2ccc(O)c(C(=O)O)c2)c2ccc(O)c(C(=O)O)c2)C=CC1=O [Aurintricarboxylic acid] | 91.7%
COC(=O)[C@]12CCC(C)(C)C[C@H]1[C@H]1C(=O)C=C3[C@@]4(C)C=C(C#N)C(=O)C(C)(C)[C@@H]4CC[C@@]3(C)[C@]1(C)CC2 [Bardoxolone methyl] | 5.56%
Cc1c(-c2ccc(-c3ccccc3F)cc2)nc2ccc(F)cc2c1C(=O)O [Brequinar] | 47.9%
